Experimental data as given in patent US12246026B2, “Ganaxolone for use in treatment of status epilepticus” (Marinus Pharmaceuticals, Inc., priority 2019, dated 2025).
“Also recorded” adds a separate entry of the source.

How the values were obtained:
Assay type in all cases: in vivo, human
RSE patients = experiment: Phase 2 open-label dose range study, efficacy in RSE patients; conditions: for GNX plasma concentration whose acute maintenance was associated with improved seizure control on EEG: PK/PD relationship, FIGS. 13A-13D
Procedure: Eligible patients were treated with continuous adjunctive IV ganaxolone infusion. Initial dosing included a 3-minute bolus dose (25 or 30 mg) with a continuous infusion at rates ranging from 10 to 85 mg/hour for up to 96-hours, followed by an 18-hour study drug taper.
The study enrolled 17 patients divided among 3 dosing cohorts. The IV solution utilizes Captisol® as an excipient for solubilization of ganaxolone. In an agreement with the Food and Drug Administration (FDA), the Captisol exposure for patients participating in Study 1042-SE-2001 was not to exceed 50 g/day. Given the daily Captisol limit, 3 different doses of GNX IV solution were investigated; 500, 650, and 713 mg/day total GNX referred to as the low, medium, and high dose level cohorts, respectively.

[1] = Phase 2 Study 1042-SE-2001 open-label group, safety
Procedure: (§1) As of 22 Mar. 2019, 5 subjects were enrolled into the Study 1042-SE-2001 open-label group under the original protocol that limits daily Captisol exposure at 35 g/day. […] The initial EEG pattern post-infusion initiation was described by study physicians as a “light” burst suppression that was maintained for several hours in all subjects. […] It was observed that when GNX exposure was lowered (20 mg/hr for 2 hours and ending with 10 mg/hr for the remaining 18 hours on Day 1) in order not to exceed this limit, seizure control could not be maintained and seizure activity (but not SE) re-occurred as evidenced by EEG changes. […] Seizure activity relapsed when plasma concentrations of GNX decreased <500 ng/mL in 4 out of 5 subjects.
Subject 015-101 was a person who presented with focal convulsive SE due to a tumor (Day 1). Recent medical history included convulsive seizures, SE, and Glioblastoma multiform of parietal lobe. Subject was administered levetiracetam for SE and lorazepam, diazepam, dexamethasone, and multiple doses of levetiracetam for seizure control prior to study enrollment. On Day 3, the subject was enrolled in the study and started on IV GNX 30 mg bolus dose plus continuous infusion (85 mg/hr). At the start of dose initiation the subject was alert. […] They were arousable to voice but required continuous stimulation to stay awake or follow commands. They maintained their airway and was able to endorse that the numbness had resolved and reported that they no longer felt twitches. […] The subject had significant direction-changing nystagmus and complained of blurry vision. […] During the next 2 hours the subject remained somnolent and was becoming increasingly restless. As per the protocol, GNX was decreased to 40 mg/hr at 2 hours post dose initiation. Approximately 10 to 15 minutes after the infusion rate was decreased to 40 mg/hr, the subject's arousal improved, they became conversational, and wanted to eat. They had no seizures at this time. Vital signs remained stable. During the GNX infusion, concomitant lacosamide was increased due to increased numbness. […] Once the GNX taper was completed the investigator reported there were no sequelae.
Under the protocol amended with the 50 g/day Captisol limit, 1 subject was enrolled in the open-label study as of 26 Mar. 2019. The subject presented with NCSE due to a tumor. The subject failed 3 second-line IV AEDs and qualified for the study based on the study's inclusion/exclusion criteria. Within 3 minutes after starting the IV GNX infusion, the RSE ceased and seizure protection was maintained for the remaining 48 hours of GNX treatment. […] Pharmacokinetic data were unavailable at the time of this report.

subjects with SE = experiment: Phase 2 Study 1042-SE-2001 open-label group, seizure control by EEG
Source text: Example 2 is an ongoing, double-blind, randomized, placebo-controlled Phase 2 study designed to evaluate the safety, tolerability, and efficacy of adjunctive IV GNX in subjects with SE who have failed initial treatment with benzodiazepines and at least one AED. The study consists of a small open-label group to optimize the infusion parameters and provide a preliminary assessment of safety, efficacy, and tolerability of GNX administration, followed by a double-blind group who will be randomized to receive GNX or placebo in a 1:1 ratio. In both the open-label and double-blind groups, the study drug treatment is adjunctive therapy to standard of care, and subjects will receive a study drug bolus dose with a concurrent continuous infusion treatment with the goal of administering a therapeutic dose as quickly as possible to stop the seizures and prevent permanent neurological damage. Specifically, study drug will be added to the standard of care at the time that the first 2nd-line IV AED has failed and the second 2nd-line IV AED is medically indicated during the treatment of SE. Study drug must be administered with the second-line IV AED as close to the dose initiation of the second 2nd-line IV AED as possible, but before the initiation of the third-line IV anesthetic for burst suppression.
Ganaxolone for this study is a proprietary IV formulation solubilized by Captisol® (betadex sulfobutyl ether sodium). The maximum level of Captisol® will not exceed 50 g/per day. Ganaxolone for IV administration will be provided to the site as individual glass vials containing 3 mg/mL of ganaxolone for the open-label group and 5 mg/mL of ganaxolone for the double-blind group. Placebo for double-blind group IV administration will be provided to the site as blinded matching vials containing 0.9% sodium chloride solution.
Total adjunctive GNX therapy infusion treatment is planned to be 3 or 5 days (including an 18-hour taper). All subjects will have a 3-minute bolus dose with a continuous infusion at the rate from about 10 mg/hour to about 85 mg/hour or from about 18 mg/hr to 80 mg/hr, and an 18-hour taper. Once study drug administration is started it will be delivered for a full 2 or 4 days (48 or 96 hours) prior to tapering. At the end of second day administration, the decision to administer the study drug for an additional 2 days (i.e., for a total of 4 days) will be made. If in the investigator's medical judgment the subject will continue benefitting from study drug administration, ganaxolone will be administered to the additional 2 days.
as §1

[2] = Medium cohort, 650 mg/day, n = 4
[3] = Target cohort, 713 mg/day, n = 8

## CC(=O)[C@H]1CC[C@H]2[C@@H]3CC[C@H]4C[C@](C)(O)CC[C@]4(C)[C@H]3CC[C@]12C [Ganaxolone, 3α-hydroxy-3β-methyl-5α-pregnan-20-one]
RSE patients; 15 evaluable patients, low, medium and high cohorts
  reduction in EEG seizure burden: rapid and dose-dependent sustained reduction in EEG seizure burden
RSE patients; Low cohort, 500 mg/day, 1 of 2 (1 died)
  No SE Relapse at anytime during the 4-wk follow up period: 50%
RSE patients; Low cohort, 500 mg/day, n = 5
  No escalation to IV anesthetics within 24 hrs from infusion initiation(Primary Endpoint): 100%
  No escalation to additional IV AEDs or IV anesthetics for status relapse at any time through 24 hrs after GNX discontinuation: 60%
  Status-free through 24 hrs from infusion initiation: 100%
RSE patients; Medium cohort, 650 mg/day, 2 of 3 (1 ET)
  No SE Relapse at anytime during the 4-wk follow up period: 67%
RSE patients; [2]
  No escalation to IV anesthetics within 24 hrs from infusion initiation(Primary Endpoint): 100%
  No escalation to additional IV AEDs or IV anesthetics for status relapse at any time through 24 hrs after GNX discontinuation: 75%
  Status-free through 24 hrs from infusion initiation: 100%
RSE patients
  GNX plasma concentration whose acute maintenance was associated with improved seizure control on EEG: ≥ 500 ng/mL
RSE patients; listed as GNX
  GNX plasma concentration whose acute maintenance was associated with improved seizure control on EEG: > 500 ng/mL
RSE patients; Target cohort, 713 mg/day, 6 of 6 (1ET, 1 died)
  No SE Relapse at anytime during the 4-wk follow up period: 100%
RSE patients; [3]
  No escalation to IV anesthetics within 24 hrs from infusion initiation(Primary Endpoint): 100%
  No escalation to additional IV AEDs or IV anesthetics for status relapse at any time through 24 hrs after GNX discontinuation: 100%
  Status-free through 24 hrs from infusion initiation: 88%
RSE patients; all cohorts, 14 patients of 17
  patients not requiring additional IV AEDS or IV anesthetics for status relapse up to 4 weeks: 82%
RSE patients; all cohorts, 16 patients of 17
  patients who achieved and maintained SE cessation within the first 24-hours: 94%
RSE patients; all cohorts, n=17
  patients not requiring escalation to an IV anesthetic drug for SE control within the first 24-hours: 100%
RSE patients; all dose groups, n=15 evaluable patients
  Median time to SE cessation from initiation of GNX treatment: 5 min
RSE patients; evaluable patients
  patients with SE cessation achieved in <30 min: 14 out of 15
[1]; 1 subject, amended protocol, concomitant AEDs
  safety finding related to GNX: increased sedation
[1]; 5 subjects
  GNX-related cardiovascular events requiring pharmacological intervention: no GNX-related cardiovascular events that required pharmacological intervention were observed
  intubation as a direct result of GNX therapy: no subjects had to be intubated as a direct result of GNX therapy
[1]; Subject 015-101, 30 mg bolus, 85 mg/hr, listed as GNX
  adverse observations during infusion: significant somnolence; also recorded: urinary retention with urgency
Subjects with SE; 1 subject, amended protocol
  duration seizure protection was maintained: 48 h
Subjects with SE; 1 subject, amended protocol, Captisol 50 g/day, NCSE due to tumor
  time to RSE cessation after starting IV GNX infusion: ≤ 3 min
Subjects with SE; 1 subject, amended protocol, listed as GNX
  seizure relapse on weaning off GNX: no seizure relapse; also recorded: without seizure relapse
Subjects with SE; Subject 004-101, 30 mg bolus, 85 mg/hr
  EEG response after start of GNX: Almost immediately the EEG showed seizure suppression
Subjects with SE; Subject 004-101, at 20 mg/hr
  time of seizure relapse post infusion start: approximately 5 hours
Subjects with SE; Subject 004-102
  time at which additional intervention was required post-dose initiation: approximately 42.5 hours
Subjects with SE; Subject 004-102, 60 minutes and 2 hours post-dose initiation
  seizure activity on EEG: no seizure activity
Subjects with SE; Subject 004-102, at 20 mg/hr
  time of return of concerning EEG pattern post-dose initiation: 5 to 6 h
Subjects with SE; Subject 006-101
  time to SE abort after bolus administration: ≤ 1 min
Subjects with SE; Subject 006-101, 60 minutes and 2 hours post-dose initiation
  seizure activity on EEG: no seizure activity
Subjects with SE; Subject 006-101, at 20 mg/hr
  time of seizure relapse post infusion start: approximately 6 hours
Subjects with SE; Subject 006-102
  effect of bolus on SE: SE aborted upon administration of the bolus
Subjects with SE; Subject 006-102, 60 minutes, 2 hours and 4 hours post-dose initiation
  seizure activity on EEG: no seizure activity
Subjects with SE; Subject 006-102, at 20 mg/hr
  time of seizure relapse post infusion start: approximately 6 hours
Subjects with SE; Subject 015-101, focal convulsive SE
  seizure return during treatment: Seizures did not return during the treatment period
Subjects with SE; all 5 subjects, 30 mg bolus, 85 mg/hr 2 h then 40 mg/hr 2 h, listed as GNX
  effect of initial bolus plus continuous infusion on seizures/SE (EEG): immediate cessation of seizures; also recorded: immediate cessation of SE
Subjects with SE; original protocol, Captisol 35 g/day
  subjects with seizure activity relapse when plasma GNX decreased <500 ng/mL: 4 out of 5
